Experimental data: ChEMBL document CHEMBL1201862, “PubChem BioAssay data set” (2004)
Active and inactive are the calls of the source.

Experiments:
Cytochrome P450 2D6 = Cytochrome P450 2D6 (Homo sapiens, UniProt P10635);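 further: CYP2D6 member of a cytochrome P450 panel assay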
Protein skinhead-1 = biological target: T1, Protein skinhead-1 (Caenorhabditis elegans, UniProt P34707); assay type: functional
T1 sequence (P34707 whole entry): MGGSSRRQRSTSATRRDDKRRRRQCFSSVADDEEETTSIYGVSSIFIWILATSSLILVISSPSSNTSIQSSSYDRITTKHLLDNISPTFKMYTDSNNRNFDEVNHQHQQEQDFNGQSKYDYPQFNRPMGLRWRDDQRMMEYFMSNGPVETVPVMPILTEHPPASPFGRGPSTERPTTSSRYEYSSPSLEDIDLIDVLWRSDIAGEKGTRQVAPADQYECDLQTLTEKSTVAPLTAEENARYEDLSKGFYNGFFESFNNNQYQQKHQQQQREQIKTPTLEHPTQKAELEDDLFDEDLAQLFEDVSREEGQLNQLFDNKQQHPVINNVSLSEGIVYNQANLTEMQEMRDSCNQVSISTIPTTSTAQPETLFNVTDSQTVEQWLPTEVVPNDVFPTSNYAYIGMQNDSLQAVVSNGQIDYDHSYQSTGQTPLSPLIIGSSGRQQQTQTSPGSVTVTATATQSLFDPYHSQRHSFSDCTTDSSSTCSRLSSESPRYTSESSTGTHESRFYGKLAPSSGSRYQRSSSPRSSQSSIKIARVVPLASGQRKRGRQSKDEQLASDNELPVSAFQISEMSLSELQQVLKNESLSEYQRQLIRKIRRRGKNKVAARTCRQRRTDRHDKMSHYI

BJ [1] = experiment: BJ-TERT fibroblast viability loss – cell-based, RAS-independent, luminescence, dose response (AID 1933); assay type: functional; details: Homo sapiens
BJ [2] = experiment: growth inhibition of engineered Ras-driven BJ cells – cell-based, alamar blue fluorescence, cherrypicked samples, dose response (AID 2631); assay type: functional; details: Homo sapiens;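 further: confirmatory dose-response assay in RAS-dependent BJ fibroblasts engineered with TERT, LT and ST, with cytotoxicity read by fluorescence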
Vero = experiment: viability of Vero cells under compound – cytotoxicity control for flavivirus capping enzyme inhibitors (AID 588742); assay type: functional; details: Chlorocebus sabaeus
[3] = biological target: Cystic fibrosis transmembrane conductance regulator/Golgi-associated PDZ and coiled-coil motif-containing protein (Homo sapiens, UniProt P13569+Q9HD26); experiment: potency against CAL PDZ-peptide interaction – biochemical, fluorescence polarization, Cerulean-tagged CAL PDZ, cherry-picks, dose response (AID 504773)
Sequence of Cystic fibrosis transmembrane conductance regulator/Golgi-associated PDZ and coiled-coil motif-containing protein (P13569 whole entry, other chains not shown, the tested form may be a part): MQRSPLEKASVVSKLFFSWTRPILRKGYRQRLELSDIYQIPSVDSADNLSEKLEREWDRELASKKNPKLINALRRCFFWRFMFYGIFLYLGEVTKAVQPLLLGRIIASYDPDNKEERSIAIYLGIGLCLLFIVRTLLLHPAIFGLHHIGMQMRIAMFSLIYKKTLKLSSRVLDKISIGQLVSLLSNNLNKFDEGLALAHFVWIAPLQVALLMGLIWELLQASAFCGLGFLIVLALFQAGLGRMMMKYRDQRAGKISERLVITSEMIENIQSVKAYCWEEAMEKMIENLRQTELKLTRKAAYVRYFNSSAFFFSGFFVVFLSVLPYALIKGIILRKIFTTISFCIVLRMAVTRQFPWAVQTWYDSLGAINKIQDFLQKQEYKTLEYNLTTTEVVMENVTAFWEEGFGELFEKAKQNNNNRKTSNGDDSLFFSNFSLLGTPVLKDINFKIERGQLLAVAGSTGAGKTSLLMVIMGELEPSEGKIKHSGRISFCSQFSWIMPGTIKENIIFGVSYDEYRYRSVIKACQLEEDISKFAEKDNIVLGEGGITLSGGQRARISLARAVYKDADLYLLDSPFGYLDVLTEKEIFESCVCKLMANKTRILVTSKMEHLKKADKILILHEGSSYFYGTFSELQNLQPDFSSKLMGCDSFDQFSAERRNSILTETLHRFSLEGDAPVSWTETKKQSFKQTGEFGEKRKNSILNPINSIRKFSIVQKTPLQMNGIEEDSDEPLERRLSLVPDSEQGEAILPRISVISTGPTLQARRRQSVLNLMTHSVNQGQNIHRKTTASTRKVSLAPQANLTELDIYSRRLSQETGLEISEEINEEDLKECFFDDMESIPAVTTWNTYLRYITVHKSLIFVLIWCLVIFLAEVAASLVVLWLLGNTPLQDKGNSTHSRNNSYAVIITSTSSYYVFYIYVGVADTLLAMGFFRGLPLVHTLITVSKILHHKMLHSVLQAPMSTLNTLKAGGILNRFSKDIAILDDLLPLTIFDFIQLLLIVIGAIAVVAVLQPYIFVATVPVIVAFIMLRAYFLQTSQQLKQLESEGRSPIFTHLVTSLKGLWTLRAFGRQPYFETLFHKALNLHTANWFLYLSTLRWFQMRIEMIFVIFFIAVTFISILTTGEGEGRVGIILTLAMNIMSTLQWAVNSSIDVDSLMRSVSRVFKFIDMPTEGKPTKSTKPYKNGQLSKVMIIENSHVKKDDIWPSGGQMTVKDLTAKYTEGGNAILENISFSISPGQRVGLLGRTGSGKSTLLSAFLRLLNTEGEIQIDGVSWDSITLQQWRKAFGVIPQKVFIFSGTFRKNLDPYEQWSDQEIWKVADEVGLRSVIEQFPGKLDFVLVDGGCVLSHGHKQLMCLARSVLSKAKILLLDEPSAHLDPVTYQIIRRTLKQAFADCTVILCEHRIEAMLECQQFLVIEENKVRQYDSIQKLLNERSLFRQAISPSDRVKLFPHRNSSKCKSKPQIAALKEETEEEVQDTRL

Hexokinase HKDC1 = biological target: T2, Hexokinase HKDC1 (Homo sapiens, UniProt Q2TB90); experiment: SAR analysis of small molecule inhibitors of hexokinase domain containing I (HKDC1). [Related pubchem assays (depositor defined):AID493160, AID493190]; assay type: functional
T2 sequence (Q2TB90 whole entry): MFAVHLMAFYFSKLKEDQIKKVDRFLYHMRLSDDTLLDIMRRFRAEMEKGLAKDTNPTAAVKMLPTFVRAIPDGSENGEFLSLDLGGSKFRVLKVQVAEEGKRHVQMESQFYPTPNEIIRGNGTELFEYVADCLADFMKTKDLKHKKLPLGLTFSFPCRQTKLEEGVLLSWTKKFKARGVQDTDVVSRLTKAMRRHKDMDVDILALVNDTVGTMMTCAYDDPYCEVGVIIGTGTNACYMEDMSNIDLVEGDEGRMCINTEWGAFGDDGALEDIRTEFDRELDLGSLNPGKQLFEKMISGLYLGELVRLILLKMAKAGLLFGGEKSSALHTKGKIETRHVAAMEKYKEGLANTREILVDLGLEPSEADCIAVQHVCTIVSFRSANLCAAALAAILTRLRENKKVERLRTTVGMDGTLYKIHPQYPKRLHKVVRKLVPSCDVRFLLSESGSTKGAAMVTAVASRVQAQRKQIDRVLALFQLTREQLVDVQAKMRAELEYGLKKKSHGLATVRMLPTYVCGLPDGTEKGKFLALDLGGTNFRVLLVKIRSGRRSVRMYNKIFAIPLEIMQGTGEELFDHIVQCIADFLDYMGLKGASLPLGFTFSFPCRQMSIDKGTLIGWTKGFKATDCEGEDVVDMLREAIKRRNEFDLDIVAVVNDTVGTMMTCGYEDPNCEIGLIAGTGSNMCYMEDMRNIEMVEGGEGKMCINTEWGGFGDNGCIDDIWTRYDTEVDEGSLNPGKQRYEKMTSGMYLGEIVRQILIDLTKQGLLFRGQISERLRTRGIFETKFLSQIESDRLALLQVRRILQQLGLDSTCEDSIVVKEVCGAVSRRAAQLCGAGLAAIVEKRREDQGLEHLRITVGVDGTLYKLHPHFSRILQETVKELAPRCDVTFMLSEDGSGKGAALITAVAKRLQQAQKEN

[4] = biological target: T3, Sphingosine 1-phosphate receptor 4 (Homo sapiens, UniProt O95977); experiment: Fluorescence dose response cell-based high throughput screening assay for antagonists of the Sphingosine 1-Phosphate Receptor 4 (S1P4). [Related pubchem assays: 1524 (Confirmation in triplicates.), 1510 (Primary screen.)]; assay type: functional
T3 sequence (O95977 whole entry): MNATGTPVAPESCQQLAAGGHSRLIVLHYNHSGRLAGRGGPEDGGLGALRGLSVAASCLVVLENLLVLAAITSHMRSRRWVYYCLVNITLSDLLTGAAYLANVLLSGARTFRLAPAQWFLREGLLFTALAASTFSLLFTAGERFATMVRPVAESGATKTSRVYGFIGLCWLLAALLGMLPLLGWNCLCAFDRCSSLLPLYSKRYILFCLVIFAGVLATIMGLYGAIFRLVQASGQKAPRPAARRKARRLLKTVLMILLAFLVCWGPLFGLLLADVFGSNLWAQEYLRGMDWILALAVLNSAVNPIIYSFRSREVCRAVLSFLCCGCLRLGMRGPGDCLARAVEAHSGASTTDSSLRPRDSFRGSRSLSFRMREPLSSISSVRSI

Caspase-3 = biological target: T4, Caspase-3 (Homo sapiens, UniProt P42574); experiment: Dose-response confirmation of uHTS inhibitor hits of Sentrin-Specific Protease 8 in a Caspase-3 Fluorescence assay.; assay type: functional
T4 sequence (P42574 whole entry): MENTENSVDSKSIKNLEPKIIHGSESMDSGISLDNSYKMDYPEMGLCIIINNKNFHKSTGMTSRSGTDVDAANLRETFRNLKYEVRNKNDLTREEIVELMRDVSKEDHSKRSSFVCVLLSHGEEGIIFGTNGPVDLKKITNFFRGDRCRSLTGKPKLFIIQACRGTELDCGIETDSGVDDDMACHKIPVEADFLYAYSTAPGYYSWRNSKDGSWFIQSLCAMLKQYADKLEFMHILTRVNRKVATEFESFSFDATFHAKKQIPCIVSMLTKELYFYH

Sequence of Cytochrome P450 2D6 (P10635 whole entry): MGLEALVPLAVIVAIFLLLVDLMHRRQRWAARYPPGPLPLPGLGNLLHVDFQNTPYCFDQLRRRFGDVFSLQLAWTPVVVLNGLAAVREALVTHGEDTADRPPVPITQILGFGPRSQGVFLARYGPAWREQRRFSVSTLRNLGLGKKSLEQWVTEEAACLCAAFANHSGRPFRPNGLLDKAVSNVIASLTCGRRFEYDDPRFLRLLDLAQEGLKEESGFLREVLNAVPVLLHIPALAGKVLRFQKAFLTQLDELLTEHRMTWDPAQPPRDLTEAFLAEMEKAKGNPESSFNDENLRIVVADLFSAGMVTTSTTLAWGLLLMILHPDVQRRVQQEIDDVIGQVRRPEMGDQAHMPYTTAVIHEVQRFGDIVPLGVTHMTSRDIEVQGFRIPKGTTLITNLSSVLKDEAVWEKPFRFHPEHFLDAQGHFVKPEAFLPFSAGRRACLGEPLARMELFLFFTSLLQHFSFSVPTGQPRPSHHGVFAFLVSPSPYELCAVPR

O=C(/C=C/c1ccco1)Nc1ccc(Oc2ccccc2)cc1
AC50 (Cytochrome P450 2D6): 4.47 µM (inconclusive)
IC50 (Protein skinhead-1): > 100 µM (inactive)
EC50 (BJ [1]): > 150 µM (not active)
EC50 (BJ [2]): 14.6 µM (active)

COc1ccc(S(=O)(=O)Nc2cc(SCC(=O)O)c(O)c3ccccc23)cc1
CC50 (Vero): 20.6 µM (active)
AC50 [3]: 33.1 µM (active)
IC50 (Hexokinase HKDC1): 10.5 µM (active)

O=C1C(Nc2ccc(O)cc2)=C/C(=N/S(=O)(=O)c2cccs2)c2ccccc21
IC50 [4]: 1.65 µM (active)

COC(=O)C(O)(c1c(C)[nH]n(-c2ccccc2)c1=O)C(F)(F)F (centres undefined)
IC50 (Caspase-3): 68.9 µM (inactive)
